Earlier results on three compounds are cited in PMC9179904 (Cancers, 2022).

On the set-up of data set [1]: method as in PMID 7938477, PMID 9935073.
Data set [2] concerns PC-3 PIP and LNCaP tumors. Details: method as in PMID 34402925.

On to ^213Bi-CHX-A-DTPA-HuM195m, for which the “Internalized alpha particles needed to decrease survival to 37–50%” value in data set [1] was 1. On to `O=C([O-])CN1CCN(CC(=O)[O-])CCN(CC(=O)NCC2CCC(C(=O)N[C@@H](Cc3ccc4ccccc4c3)C(=O)NCCCC[C@H](NC(=O)N[C@@H](CCC(=O)O)C(=O)O)C(=O)O)CC2)CCN(CC(=O)[O-])CC1.[177Lu+3]` (stereo partly drawn) [^177Lu-PSMA-617], for which, in data set [2], the “Tumor uptake, PC-3 PIP higher than LNCaP tumors” value was 6–10 fold. Take `S=C([S-])N1CCCC1.S=C([S-])N1CCCC1.[Pb+2]` [^212Pb(PDC)2]: the “Internalized alpha particles needed to decrease survival to 37–50%” value in data set [1] is recorded as 11.
